Data published in DBAASP.
Converted amounts (≈) assume the structure as drawn. Blank lines part the entries; values can stand above or below the compound they belong to.

Tests used:
Assay in all cases: ≥ marks a high value that may be exact or a test limit, other limits are often not marked, values filed in µg/mL are converted to µM
Escherichia coli K-12 = system: Escherichia coli K-12
[1] = system: Staphylococcus aureus USA 300
Bacillus megaterium = system: Bacillus megaterium
[2] = system: Candida albicans ATCC 2002
[3] = system: Escherichia coli ATCC 25922
Klebsiella pneumoniae = system: Klebsiella pneumoniae
[4] = system: Pseudomonas aeruginosa CMCCB 10104
Shigella dysenteriae = system: Shigella dysenteriae
[5] = system: Staphylococcus aureus ATCC 2592
[6] = system: Bacillus subtilis ATCC 23857
Leuconostoc lactis = system: Leuconostoc lactis
Listeria innocua = system: Listeria innocua
[7] = system: Staphylococcus aureus ATCC 29213
[8] = system: Staphylococcus epidermidis ATCC 12228
[9] = system: Pseudomonas aeruginosa ATCC 27853
[10] = system: Staphylococcus aureus ATCC 6538
[11] = system: Bacillus subtilis ATCC 6633
[12] = system: Klebsiella pneumoniae ATCC 10031
[13] = system: Salmonella enterica subsp. enterica serovar Typhimurium ATCC 14028
[14] = system: Shigella dysenteriae ATCC 9752
[15] = system: Staphylococcus aureus ATCC 6538P
Candida albicans = system: Candida albicans
[16] = system: Enterococcus faecalis ATCC 29212
Escherichia coli UB1005 = system: Escherichia coli UB1005
[17] = system: Pseudomonas aeruginosa H103
[18] = system: Salmonella enterica serovar Typhimurium
[19] = system: Staphylococcus aureus ATCC 25923
[20] = system: Staphylococcus epidermidis

SMILES: CC[C@H](C)[C@H](NC(=O)[C@H](CCCN=C(N)N)NC(=O)[C@H](CCC(N)=O)NC(=O)[C@@H](NC(=O)[C@@H](NC(=O)[C@H](CCCN=C(N)N)NC(=O)[C@H](CCCN=C(N)N)NC(=O)[C@H](Cc1ccccc1)NC(=O)[C@H](CCC(=O)O)NC(=O)CN)[C@@H](C)CC)C(C)C)C(=O)N[C@@H](CCCN=C(N)N)C(=O)N[C@@H](CC(=O)O)C(=O)N[C@@H](Cc1ccccc1)C(=O)N[C@@H](CC(C)C)C(=O)N[C@@H](CCCN=C(N)N)C(=O)N[C@@H](CC(N)=O)C(=O)N[C@@H](CC(C)C)C(=O)N[C@H](C(N)=O)C(C)C [GEFRRIVQRIRDFLRNLV]
MIC (Escherichia coli K-12): ≥ 60 µM
MIC [1]: 30 µM (≈ 68.6 µg/mL)

SMILES: CC[C@H](C)[C@H](NC(=O)CN)C(=O)NCC(=O)NCC(=O)N[C@@H](CCCCN)C(=O)N[C@H](C(=O)N[C@@H](CC(C)C)C(=O)N[C@@H](CO)C(=O)NCC(=O)N[C@@H](CC(C)C)C(=O)N[C@@H](CCCCN)C(=O)N[C@H](C(=O)N[C@@H](C)C(=O)N[C@@H](CC(C)C)C(=O)N[C@@H](CCCCN)C(=O)NCC(=O)N[C@@H](C)C(=O)N[C@@H](C)C(=O)N[C@@H](CCCCN)C(=O)N[C@@H](CCC(=O)O)C(=O)N[C@@H](CC(C)C)C(=O)N[C@@H](C)C(=O)N[C@@H](CO)C(=O)N[C@H](C(=O)N[C@@H](Cc1ccc(O)cc1)C(=O)N[C@@H](CC(C)C)C(=O)N[C@@H](Cc1cnc[nH]1)C(=O)O)[C@@H](C)O)[C@@H](C)O)[C@@H](C)CC [GIGGKILSGLKTALKGAAKELASTYLH]
MIC (Bacillus megaterium): 0.334 µM (≈ 0.9 µg/mL)
MIC [2]: 5.56 µM (≈ 15 µg/mL)
MIC [3]: 0.334 µM (≈ 0.9 µg/mL)
MIC (Klebsiella pneumoniae): 1.15 µM (≈ 3.1 µg/mL)
MIC [4]: 0.556 µM (≈ 1.5 µg/mL)
MIC (Shigella dysenteriae): 0.334 µM (≈ 0.9 µg/mL)
MIC [5]: 1.15 µM (≈ 3.1 µg/mL)

SMILES: CC[C@H](C)[C@H](NC(=O)CN)C(=O)NCC(=O)NCC(=O)N[C@H](C(=O)N[C@@H](CC(C)C)C(=O)N[C@@H](CC(C)C)C(=O)N[C@@H](CO)C(=O)N[C@@H](C)C(=O)NCC(=O)N[C@@H](CCCCN)C(=O)N[C@@H](C)C(=O)N[C@@H](C)C(=O)N[C@@H](CC(C)C)C(=O)N[C@@H](CCCCN)C(=O)NCC(=O)N[C@@H](CC(C)C)C(=O)N[C@@H](C)C(=O)N[C@@H](CCCCN)C(=O)N[C@H](C(=O)N[C@@H](CC(C)C)C(=O)N[C@@H](C)C(=O)N[C@@H](CCC(=O)O)C(=O)N[C@@H](CCCCN)C(=O)N[C@@H](Cc1ccc(O)cc1)C(=O)N[C@@H](C)C(=O)N[C@@H](CC(N)=O)C(N)=O)C(C)C)C(C)C [GIGGVLLSAGKAALKGLAKVLAEKYAN]
MIC (Bacillus megaterium): 0.574 µM (≈ 1.5 µg/mL)
MIC [2]: 5.74 µM (≈ 15 µg/mL)
MIC [3]: 1.03 µM (≈ 2.7 µg/mL)
MIC (Klebsiella pneumoniae): 5.74 µM (≈ 15 µg/mL)
MIC [4]: 1.03 µM (≈ 2.7 µg/mL)
MIC (Shigella dysenteriae): 1.03 µM (≈ 2.7 µg/mL)
MIC [5]: 1.03 µM (≈ 2.7 µg/mL)

SMILES: CC[C@H](C)[C@H](NC(=O)CN)C(=O)N[C@H](C(=O)N[C@@H](C)C(=O)NCC(=O)N[C@@H](C)C(=O)N[C@H](C(=O)N[C@H](C(=O)N[C@@H](CCCCN)C(=O)N[C@H](C(=O)N[C@@H](CCCCN)C(=O)N[C@@H](CCCCN)C(N)=O)[C@@H](C)CC)[C@@H](C)CC)[C@@H](C)CC)[C@@H](C)CC [GIIAGAIIKIKK]
MIC [6]: ≥ 32 µM
MIC [3]: 64 µM (≈ 78.3 µg/mL)

SMILES: CC[C@H](C)[C@H](NC(=O)[C@H](CC(N)=O)NC(=O)[C@H](CCCN=C(N)N)NC(=O)[C@H](C)NC(=O)[C@H](CCSC)NC(=O)[C@H](CCCCN)NC(=O)[C@H](CCC(=O)O)NC(=O)[C@@H](NC(=O)[C@H](CCCCN)NC(=O)[C@H](CCCCN)NC(=O)[C@H](Cc1ccccc1)NC(=O)[C@@H](NC(=O)[C@H](CCCCN)NC(=O)[C@H](Cc1c[nH]c2ccccc12)NC(=O)[C@@H](N)CCCCN)C(C)C)[C@@H](C)CC)C(=O)N[C@@H](CCCN=C(N)N)C(=O)N[C@@H](CC(N)=O)C(=O)N[C@@H](CCCCN)C(=O)N[C@H](C(=O)N[C@H](C(=O)N[C@@H](CCCCN)C(N)=O)C(C)C)[C@@H](C)CC [KWKVFKKIEKMARNIRNKIVK]
MIC (Escherichia coli K-12): 6 µM (≈ 15.9 µg/mL)
MIC [9]: > 3 µM
MIC [10]: > 12 µM

SMILES: CC(C)C[C@H](NC(=O)[C@H](Cc1c[nH]c2ccccc12)NC(=O)[C@H](CCCCN)NC(=O)[C@H](CCCCN)NC(=O)[C@@H](N)CC(C)C)C(=O)N[C@@H](CCCCN)C(N)=O [LKKWLK]
MIC [11]: ≥ 245 µM
MIC [3]: > 245 µM
MIC [12]: ≥ 245 µM
MIC [9]: > 245 µM
MIC [13]: > 245 µM
MIC [14]: ≥ 245 µM
MIC [15]: ≥ 245 µM
MIC [8]: > 245 µM

Results, then the compound that gave them:

MIC (Leuconostoc lactis): 10.4 µM (≈ 25 µg/mL)
MIC (Listeria innocua): ≥ 41.8 µM
SMILES: CC[C@H](C)[C@H](NC(=O)[C@H](CO)NC(=O)[C@H](CO)NC(=O)[C@@H](NC(=O)[C@H](CC(C)C)NC(=O)CN)C(C)C)C(=O)NCC(=O)N[C@@H](CCCCN)C(=O)N[C@H](C(=O)N[C@@H](CC(C)C)C(=O)NCC(=O)NCC(=O)N[C@@H](CC(C)C)C(=O)N[C@@H](CC(C)C)C(=O)N[C@@H](C)C(=O)N[C@@H](CC(=O)O)C(=O)N[C@H](C(=O)N[C@H](C(=O)N[C@@H](CCCCN)C(=O)N[C@@H](CO)C(=O)N[C@@H](CCCCN)C(=O)NCC(=O)N[C@@H](CCC(N)=O)C(=O)N1CCC[C@H]1C(=O)N[C@@H](C)C(=O)O)C(C)C)C(C)C)C(C)C [GLVSSIGKVLGGLLADVVKSKGQPA]

MIC [6]: ≥ 128 µM
MIC [3]: 256 µM (≈ 430 µg/mL)
MIC [7]: 1020 µM (≈ 1720 µg/mL)
MIC [8]: 512 µM (≈ 860 µg/mL)
SMILES: CC[C@H](C)[C@H](N)C(=O)N[C@@H](CC(=O)O)C(=O)N[C@@H](Cc1c[nH]c2ccccc12)C(=O)N[C@@H](CCCCN)C(=O)N[C@@H](CCCCN)C(=O)N[C@@H](CC(C)C)C(=O)N[C@@H](CC(C)C)C(=O)N[C@@H](CC(=O)O)C(=O)N1CCC[C@H]1C(=O)N[C@@H](C)C(=O)N[C@@H](CCCCN)C(=O)N[C@@H](CCC(N)=O)C(=O)N[C@H](C(=O)N[C@@H](CC(C)C)C(N)=O)[C@@H](C)CC [IDWKKLLDPAKQIL]

MIC (Candida albicans): 5.4 µM (≈ 7.95 µg/mL)
MIC [16]: 10.8 µM (≈ 15.9 µg/mL)
MIC (Escherichia coli UB1005): 2.7 µM (≈ 3.98 µg/mL)
MIC [17]: ≥ 86.3 µM
MIC [18]: 2.7 µM (≈ 3.98 µg/mL)
MIC [19]: 1.3 µM (≈ 1.91 µg/mL)
MIC [20]: 1.3 µM (≈ 1.91 µg/mL)
SMILES: CC[C@H](C)[C@H](NC(=O)[C@@H](N)CCCN=C(N)N)C(=O)N[C@@H](CCCCN)C(=O)N[C@@H](CCCN=C(N)N)C(=O)N[C@@H](Cc1c[nH]c2ccccc12)C(=O)N[C@@H](Cc1c[nH]c2ccccc12)C(=O)N[C@@H](Cc1c[nH]c2ccccc12)C(=O)N[C@@H](Cc1c[nH]c2ccccc12)C(=O)N[C@@H](CCCN=C(N)N)C(=O)O [RIKRWWWWR]

MIC [6]: 16 µM (≈ 22.1 µg/mL)
MIC [3]: 64 µM (≈ 88.5 µg/mL)
MIC [9]: 8 µM (≈ 11.1 µg/mL)
MIC [19]: 32 µM (≈ 44.3 µg/mL)
SMILES: CC(C)C[C@H](NC(=O)[C@H](CC(C)C)NC(=O)[C@H](CCCCN)NC(=O)[C@H](CCCCN)NC(=O)[C@H](Cc1c[nH]c2ccccc12)NC(=O)[C@H](CCCN=C(N)N)NC(=O)[C@H](CCCCN)NC(=O)[C@H](CC(C)C)NC(=O)[C@H](CC(C)C)NC(=O)[C@@H](N)Cc1c[nH]c2ccccc12)C(N)=O [WLLKRWKKLL]

MIC (Candida albicans): > 92.8 µM
MIC [16]: 2.9 µM (≈ 3.9 µg/mL)
MIC (Escherichia coli UB1005): 2.9 µM (≈ 3.9 µg/mL)
MIC [17]: ≥ 92.8 µM
MIC [18]: ≥ 92.8 µM
MIC [19]: 2.9 µM (≈ 3.9 µg/mL)
MIC [20]: 1.4 µM (≈ 1.88 µg/mL)
SMILES: CC[C@H](C)[C@H](NC(=O)[C@H](Cc1ccc(O)cc1)NC(=O)[C@@H](NC(=O)[C@H](CCCN=C(N)N)NC(=O)[C@H](Cc1c[nH]c2ccccc12)NC(=O)[C@H](CCCN=C(N)N)NC(=O)[C@H](Cc1ccccc1)NC(=O)[C@H](CCCCN)NC(=O)[C@@H](N)Cc1ccc(O)cc1)[C@@H](C)CC)C(=O)O [YKFRWRIYI]
